The values below are quoted from earlier work in patent publication US4803081A, “New pharmaceutical preparations with extended release” (Aktiebolaget Hassle, priority 1986, dated 1989).

In brackets after ≈: the same amount, converted by molar mass. Read-outs that look alike come from different tables or passages of the source.

For the series the following is noted: for solubility (in words): very low = less than 0.1 per cent by weight in water.

Consider `CCOC(=O)C1=C(C)NC(C)=C(C(=O)OC)C1c1cccc(Cl)c1Cl` (centres unmarked) [felodipine, 4-(2,3-dichlorophenyl)-1,4-dihydro-2,6-dimethyl-3,5-pyridinedicarboxylic acid ethyl methyl ester], for which the “solubility (in words)” value is “very low solubility”. For the same molecule, the “solubility (in words)” value (listed as Felodipine) was “practically insoluble”. Moreover, the solubility in water (water) is 0.5 mg/L (≈ 1.3 µM). Consider `COC1=CC(=O)C[C@@H](C)[C@]12Oc1c(Cl)c(OC)cc(OC)c1C2=O` [griseofulvin], for which the “solubility (in words)” value is recorded as “very low solubility”. Regarding `O=C1NC(=O)C(c2ccccc2)(c2ccccc2)N1` [phenytoin], the “solubility (in words)” value is listed as “very low solubility”.
